Legend:
[1] = tested on: PANC-1 human pancreatic cancer cells; assay: In vitro anti-proliferative effect, CCK-8 method, PANC-1; format: cell-based; conditions: Homo sapiens, PANC-1
Method: (§1) The inhibitory activities of the compounds towards Hut78 T lymphocytic leukemia cells, Jurkat E6-1 human T-cell lymphoma, PANC-1 human pancreatic cancer cells, A549 human lung cancer cells, K562 human chronic myelogenous leukemia cells, Hep3B2.1-7 human liver cancer cells, MDA-MB-435s human breast cancer cells. Colo320 human colorectal cancer cell lines, and PC-3 human prostate cancer at two concentrations of 100 μM and 10 μM were determined. The inhibition percentages were obtained through CCK-8 method.

[2] = tested on: Hut78 T lymphocytic leukemia cells; assay: In vitro anti-proliferative effect, CCK-8 method, Hut78; format: cell-based; conditions: Homo sapiens, HuT78, read-out: Hut-78 (inhibition %)
Method: as §1

HDACs = assay: In vitro inhibition of HDACs (HDAC Inhibitor Drug Screening Kit, Biovision K340-100); format: biochemical
Method: The in vitro inhibitory activities of the compounds towards HDACs were tested according to the instructions in the HDAC Inhibitor Drug Screening Kit (Biovision/Catalog #K340-100).
(1) The compounds to be tested were each individually prepared as 2 mM, 200 μM and 40 μM solutions and their inhibitory activities at these concentrations were tested.

HDAC1 = HDAC1 (Homo sapiens (Human), UniProt Q13547); assay: In vitro inhibition of subtype HDAC1 (HDAC1 Inhibitor Drug Screening Kit, Biovision); format: biochemical; conditions: for inhibition at 1 µM / inhibition at 10 µM: read-out: % Inhibition towards HDAC1; for inhibitory activity against HDAC1 compared with MS-275: both concentrations 10 μM and 1 μM
Sequence of HDAC1 (Q13547 whole entry): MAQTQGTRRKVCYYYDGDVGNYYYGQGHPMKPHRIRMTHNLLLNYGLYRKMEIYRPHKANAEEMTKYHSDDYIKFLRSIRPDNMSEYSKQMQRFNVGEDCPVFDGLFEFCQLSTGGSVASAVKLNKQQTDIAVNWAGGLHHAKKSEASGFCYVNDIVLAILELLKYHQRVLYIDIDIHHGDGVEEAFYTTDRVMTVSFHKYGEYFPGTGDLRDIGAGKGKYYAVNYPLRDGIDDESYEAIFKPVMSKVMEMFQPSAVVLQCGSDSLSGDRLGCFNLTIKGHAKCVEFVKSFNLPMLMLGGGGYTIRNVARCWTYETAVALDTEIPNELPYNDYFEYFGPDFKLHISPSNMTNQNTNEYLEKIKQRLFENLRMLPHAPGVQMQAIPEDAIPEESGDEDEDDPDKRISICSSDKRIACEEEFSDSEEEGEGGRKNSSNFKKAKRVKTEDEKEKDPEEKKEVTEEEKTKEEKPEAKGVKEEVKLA
Method: The in vitro inhibitory activities of the compounds towards the subtype HDAC1 were tested according to the instructions in the HDAC1 Inhibitor Drug Screening Kit (Biovision).
(1) The compounds to be tested were each individually prepared as 10 μM and 1 μM solutions and their inhibitory activities at these concentrations were tested.
Each dilution sample was placed in two wells and the enzyme inhibition IC50 of the compound was tested.

[3] = tested on: PC-3 human prostate cancer; assay: In vitro anti-proliferative effect, CCK-8 method, PC-3; format: cell-based; conditions: Homo sapiens, PC-3 cell strain, CCK-8 method; for inhibition at 10 µM: compound at 10 μM; for inhibition at 100 µM: compound at 100 μM
Method: as §1

[4] = tested on: A549 human lung cancer cells; assay: In vitro anti-proliferative effect, CCK-8 method, A549; format: cell-based; conditions: Homo sapiens, A549
Method: as §1

[5] = tested on: Hep3B2.1-7 human liver cancer cells; assay: In vitro anti-proliferative effect, CCK-8 method, Hep3B; format: cell-based; conditions: Homo sapiens, Hep3B cell strain, CCK-8 method; for inhibition at 10 µM: compound at 10 μM; for inhibition at 100 µM: compound at 100 μM
Method: as §1

[6] = tested on: MDA-MB-435s human breast cancer cells; assay: In vitro anti-proliferative effect, CCK-8 method, MDA-MB-435s; format: cell-based; conditions: Homo sapiens, MDA-MB-435S
Method: as §1

[7] = tested on: Colo320 human colorectal cancer cell lines; assay: In vitro anti-proliferative effect, CCK-8 method, Colo320; format: cell-based; conditions: Homo sapiens, COLO 320, Colo320 cell strain, CCK-8 method; for inhibition at 10 µM: compound at 10 μM; for inhibition at 100 µM: compound at 100 μM
Method: as §1

[8] = tested on: Jurkat E6-1 human T-cell lymphoma; assay: In vitro anti-proliferative effect, CCK-8 method, Jurkat E6-1; format: cell-based; conditions: Homo sapiens, Jurkat E6.1
Method: as §1

[9] = tested on: K562 human chronic myelogenous leukemia cells; assay: In vitro anti-proliferative effect, CCK-8 method, K562; format: cell-based; conditions: Homo sapiens, K562
Method: as §1

Row | Structure (SMILES) | inhibition at 1 µM (HDAC1) | inhibition at 10 µM (HDAC1) | inhibition at 10 µM [1] | inhibition at 100 µM [1] | inhibition at 10 µM [2] | inhibition at 100 µM [2] | Inhibition percentage (%) towards HDACs (HDACs; 40 μM) | Inhibition percentage (%) towards HDACs (HDACs; 200 μM) | Inhibition percentage (%) towards HDACs (HDACs; 2 mM) | inhibition at 10 µM [3] | inhibition at 100 µM [3] | inhibition at 10 µM [4] | inhibition at 100 µM [4] | inhibition at 10 µM [5] | inhibition at 100 µM [5] | inhibition at 10 µM [6] | inhibition at 100 µM [6] | inhibition at 10 µM [7] | inhibition at 100 µM [7] | inhibition at 10 µM [8] | other results
1 | COc1cccc2c(Nc3ccc(C(=O)Nc4cc(F)ccc4N)cc3)ncnc12 [Compound V-10, N-(2-amino-5-fluorophenyl)-4-(8-methoxy-quinazoline-4-amino)benzamide] | 45.2% | 62.6% | 13% | 19% | 8.1% | 47.5% | 12.0% | 32.9% | 77.2% | 13.7% | 57.4% | -4.4% | 40.1% | 3.7% | 31.3% | 9.4% | 82.9% | 6.4% | 23.3% | 25.3% | IC50 (HDACs): 1.04 µM; inhibitory activity according to in vitro IC50 value against HDACs compared with MS-275 (HDACs): better inhibitory activities than MS-275; inhibition at 100 µM [8]: 72.8%; inhibition at 10 µM [9]: 45%; inhibition at 100 µM [9]: 62.1%
2 | COc1cccc2ncnc(Nc3ccc(C(=O)Nc4ccncc4N)cc3)c12 [Compound V-8] | 21.4% | 62.7% | -1.8% | 34.9% | 17.5% | 83.6% | 8.9% | 41.1% | 46.2% | 29.7% | 89.3% | -5.9% | 38% | 5% | 90.4% | 14.2% | 94.5% | -1.8% | 86.4% | 36.4% | IC50 (HDACs): 7.76 µM; inhibition at 100 µM [8]: 96.3%; inhibition at 10 µM [9]: 56.9%; inhibition at 100 µM [9]: 94.5%
3 | COc1cccc2ncnc(Nc3ccc(C(=O)Nc4ccccc4N)cc3)c12 [Compound V-7, N-(2-aminophenyl)-4-(5-methoxy-quinazoline-4-amino)benzamide] | 50.1% | 78.4% | 1.1% | 35.2% | 10.7% | 60.3% | 6.5% | 22.1% | 39.2% | 8.1% | 49.8% | -7.4% | 24.9% | 8.1% | 53.2% | -16.5% | 85.4% | 8.9% | 48.5% | 26.4% | IC50 (HDACs): 3.99 µM; inhibitory activity against HDAC1 compared with MS-275 (HDAC1): superior to that of MS-275; inhibition at 100 µM [8]: 91%; inhibition at 10 µM [9]: 29.7%; inhibition at 100 µM [9]: 82.6%

The next lines start with results.

Row | inhibition at 1 µM (HDAC1) | inhibition at 10 µM (HDAC1) | Structure (SMILES) | inhibition at 10 µM [1] | inhibition at 100 µM [1] | inhibition at 10 µM [2] | inhibition at 100 µM [2] | Inhibition percentage (%) towards HDACs (HDACs; 40 μM) | Inhibition percentage (%) towards HDACs (HDACs; 200 μM) | Inhibition percentage (%) towards HDACs (HDACs; 2 mM) | inhibition at 10 µM [3] | inhibition at 100 µM [3] | inhibition at 10 µM [4] | inhibition at 100 µM [4] | inhibition at 10 µM [5] | inhibition at 100 µM [5] | inhibition at 10 µM [6] | inhibition at 100 µM [6] | inhibition at 10 µM [7] | inhibition at 100 µM [7] | inhibition at 10 µM [8] | other results
4 | 67.1% | 78.8% | COCCOc1cc2ncnc(Nc3ccc(C(=O)Nc4ccccc4N)cc3)c2cc1OCCOC [Compound V-15, N-(2-aminophenyl)-4-(6,7-dimethoxyethoxyquinazoline-4-amino)benzamide] | 7.2% | 0.5% | 70.7% | 80.4% | 13.7% | 51.5% | 61.4% | 10.9% | 8.6% | 4.7% | 3.5% | 16.3% | 11.2% | 21.6% | 21% | 15.3% | 3.9% | 33.7% | IC50 (HDACs): 9.4 µM; inhibitory activity against HDAC1 compared with MS-275 (HDAC1): superior to that of MS-275; inhibition at 100 µM [8]: 13.9%; inhibition at 10 µM [9]: 27.2%; inhibition at 100 µM [9]: 11.9%
5 | 47.6% | 80.2% | CS(=O)(=O)CCNCc1ccc(-c2ccc3ncnc(Nc4ccc(C(=O)Nc5ccccc5N)cc4)c3c2)o1 [Compound V-19, N-(2-aminophenyl)-4-[6-(5-((2-(methylsulfonyl)ethylamino)methyl)furyl)quinazoline-4-amino]benzamide] | 20.2% | 26.2% | 43% | 77% | 22.7% | 57.8% | 72.3% | 50.2% | 61% | 6.3% | 37.3% | 25.4% | 49.9% | 33% | 77% | 12.9% | 40.1% | 58.3% | IC50 (HDACs): 1.37 µM; inhibitory activity against HDAC1 compared with MS-275 (HDAC1): superior to that of MS-275; inhibition at 100 µM [8]: 80.9%; inhibition at 10 µM [9]: 54.3%; inhibition at 100 µM [9]: 85.8%
6 | 46.4% | 88.4% | Nc1cnccc1NC(=O)c1ccc(CNc2ncnc3ccccc23)cc1 [Compound V-26] | 5.1% | 40.8% | 79.6% | 86.9% | 11.4% | 40.2% | 82.4% | 8.7% | 52.6% | 4.2% | 63.7% | 11.7% | 63.5% | 16.6% | 73.6% | -0.2% | 44.4% | 76.9% | inhibitory activity against HDAC1 compared with MS-275 (HDAC1): superior to that of MS-275; inhibition at 100 µM [8]: 95.1%; inhibition at 10 µM [9]: 54%; inhibition at 100 µM [9]: 88.2%
7 | 59.1% | 87.4% | COCCOc1cc2ncnc(Nc3ccc(C(=O)Nc4ccncc4N)cc3)c2cc1OCCOC [Compound V-16] | 8% | 7.8% | 26.2% | 20.7% | 24.8% | 56.8% | 58.6% | 5.1% | 3.4% | 48.7% | 65.7% | 24.8% | 13.5% | 49.8% | 50.4% | -2.3% | -17.1% | 37.2% | IC50 (HDACs): 6.89 µM; inhibitory activity against HDAC1 compared with MS-275 (HDAC1): superior to that of MS-275; inhibition at 100 µM [8]: 22.1%; inhibition at 10 µM [9]: 42.8%; inhibition at 100 µM [9]: 29.7%
